Measured values from article PMC11062922 (Nature Chemical Biology, 2023).

Experiments:
[1] = molecular target: T1, endogenous kinases and other proteins enriched by Kinobeads from mixed cancer cell lysates (Homo sapiens, UniProt Q9BZL6); assay: Kinobeads pulldown, full dose-response (eight doses); assay type: binding; conditions: target PRKD2;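 also: competition with Kinobeads ε after inhibitor preincubation in lysate (5 mg/ml protein) for 45 min at 4 °C, DMSO control, doses 0.3–1,000 nM, label-free LC–MS/MS quantification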
T1 construct: endogenous in cells

[2] = molecular target: T2, endogenous kinases and other proteins enriched by Kinobeads from mixed cancer cell lysates (Homo sapiens, UniProt P37173); assay: as above; assay type: binding; conditions: target TGFBR2; read-out: apparent Kd
T2 construct: endogenous in cells

[3] = molecular target: T3, endogenous kinases and other proteins enriched by Kinobeads from mixed cancer cell lysates (Homo sapiens, UniProt Q2M2I8); assay: as above; assay type: binding; conditions: target AAK1
T3 construct: to maximize the representation of endogenous proteins; endogenous in cells

[4] = molecular target: T4, endogenous kinases and other proteins enriched by Kinobeads from mixed cancer cell lysates (Homo sapiens, UniProt Q96GD4); assay: as above; assay type: binding; conditions: target AURKB
T4 construct: endogenous in cells
T4 sequence (Q96GD4 whole entry): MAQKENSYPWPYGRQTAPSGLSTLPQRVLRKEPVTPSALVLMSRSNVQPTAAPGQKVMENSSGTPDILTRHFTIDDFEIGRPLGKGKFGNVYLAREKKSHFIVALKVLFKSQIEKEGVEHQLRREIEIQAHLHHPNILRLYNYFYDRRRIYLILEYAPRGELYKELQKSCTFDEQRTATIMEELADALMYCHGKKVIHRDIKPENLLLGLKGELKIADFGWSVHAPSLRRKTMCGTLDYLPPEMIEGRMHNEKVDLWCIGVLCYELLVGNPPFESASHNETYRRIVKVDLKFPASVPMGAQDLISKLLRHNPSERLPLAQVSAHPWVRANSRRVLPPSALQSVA

[5] = molecular target: T5, endogenous kinases and other proteins enriched by Kinobeads from mixed cancer cell lysates (Homo sapiens, UniProt Q9NWZ3); assay: as above; assay type: binding; conditions: target IRAK4
T5 construct: endogenous in cells

[6] = molecular target: T6, endogenous kinases and other proteins enriched by Kinobeads from mixed cancer cell lysates (Homo sapiens, UniProt O14965); assay: as above; assay type: binding; conditions: target AURKA
T6 construct: endogenous in cells

[7] = molecular target: T7, endogenous kinases and other proteins enriched by Kinobeads from mixed cancer cell lysates (Homo sapiens, UniProt Q9NSY1); assay: as above; assay type: binding; conditions: target BMP2K
T7 construct: endogenous in cells

[8] = molecular target: T8, endogenous kinases and other proteins enriched by Kinobeads from mixed cancer cell lysates (Homo sapiens, UniProt Q15831); assay: as above; assay type: binding; conditions: target STK11
T8 construct: endogenous in cells

[9] = molecular target: T9, endogenous kinases and other proteins enriched by Kinobeads from mixed cancer cell lysates (Homo sapiens, UniProt P11274); assay: as above; assay type: binding; conditions: target BCR
T9 construct: endogenous in cells
T9 sequence (P11274 whole entry): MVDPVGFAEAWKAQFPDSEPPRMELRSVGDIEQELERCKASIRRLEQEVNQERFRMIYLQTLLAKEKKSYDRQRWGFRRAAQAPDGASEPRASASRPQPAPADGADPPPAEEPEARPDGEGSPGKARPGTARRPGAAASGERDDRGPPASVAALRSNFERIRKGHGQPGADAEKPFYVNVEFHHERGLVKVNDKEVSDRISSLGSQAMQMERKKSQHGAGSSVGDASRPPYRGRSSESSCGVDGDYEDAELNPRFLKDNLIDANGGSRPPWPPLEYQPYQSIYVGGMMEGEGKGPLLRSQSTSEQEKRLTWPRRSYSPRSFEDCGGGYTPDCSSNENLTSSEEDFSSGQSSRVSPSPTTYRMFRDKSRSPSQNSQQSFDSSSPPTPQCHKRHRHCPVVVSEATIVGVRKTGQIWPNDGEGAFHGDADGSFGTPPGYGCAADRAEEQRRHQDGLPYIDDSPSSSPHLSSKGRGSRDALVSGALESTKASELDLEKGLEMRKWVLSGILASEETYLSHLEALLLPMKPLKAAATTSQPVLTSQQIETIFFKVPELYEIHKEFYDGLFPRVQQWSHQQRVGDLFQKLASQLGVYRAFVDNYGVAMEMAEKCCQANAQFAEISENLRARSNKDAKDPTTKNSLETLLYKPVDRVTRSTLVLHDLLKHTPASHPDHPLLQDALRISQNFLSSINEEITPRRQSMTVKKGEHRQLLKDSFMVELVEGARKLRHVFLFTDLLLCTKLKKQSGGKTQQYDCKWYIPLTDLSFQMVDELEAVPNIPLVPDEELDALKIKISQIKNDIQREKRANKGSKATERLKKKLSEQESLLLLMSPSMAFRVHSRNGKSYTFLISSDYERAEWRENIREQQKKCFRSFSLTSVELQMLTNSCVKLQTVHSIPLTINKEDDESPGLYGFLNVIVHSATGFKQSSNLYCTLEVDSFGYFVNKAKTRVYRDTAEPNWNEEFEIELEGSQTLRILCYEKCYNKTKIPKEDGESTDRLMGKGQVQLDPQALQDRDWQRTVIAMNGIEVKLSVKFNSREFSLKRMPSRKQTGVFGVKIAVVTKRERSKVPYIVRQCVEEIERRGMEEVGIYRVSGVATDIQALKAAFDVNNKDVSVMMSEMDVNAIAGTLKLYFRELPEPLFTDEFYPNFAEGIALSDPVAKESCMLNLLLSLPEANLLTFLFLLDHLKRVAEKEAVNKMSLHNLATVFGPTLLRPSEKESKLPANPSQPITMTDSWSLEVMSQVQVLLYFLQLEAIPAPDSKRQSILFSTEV

[10] = molecular target: T10, endogenous kinases and other proteins enriched by Kinobeads from mixed cancer cell lysates (Homo sapiens, UniProt O60285); assay: as above; assay type: binding; conditions: target NUAK1
T10 construct: endogenous in cells
T10 sequence (O60285 whole entry): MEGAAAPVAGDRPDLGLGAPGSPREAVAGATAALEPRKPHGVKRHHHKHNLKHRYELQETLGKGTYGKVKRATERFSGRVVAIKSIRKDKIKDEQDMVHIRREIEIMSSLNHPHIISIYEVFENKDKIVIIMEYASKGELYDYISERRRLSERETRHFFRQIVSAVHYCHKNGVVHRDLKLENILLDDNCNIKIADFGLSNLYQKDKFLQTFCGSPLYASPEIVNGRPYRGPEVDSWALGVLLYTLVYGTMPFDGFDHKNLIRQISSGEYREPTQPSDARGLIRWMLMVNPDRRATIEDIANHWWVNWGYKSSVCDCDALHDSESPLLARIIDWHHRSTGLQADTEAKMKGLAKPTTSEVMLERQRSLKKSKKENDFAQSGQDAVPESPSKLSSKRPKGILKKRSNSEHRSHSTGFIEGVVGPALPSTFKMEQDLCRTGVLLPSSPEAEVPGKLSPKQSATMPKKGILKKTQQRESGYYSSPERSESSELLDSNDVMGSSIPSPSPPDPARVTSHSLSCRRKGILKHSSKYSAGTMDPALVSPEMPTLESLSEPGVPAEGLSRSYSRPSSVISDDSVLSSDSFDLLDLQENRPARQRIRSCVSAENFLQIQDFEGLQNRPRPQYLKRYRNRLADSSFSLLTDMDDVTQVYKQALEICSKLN

[11] = molecular target: T11, endogenous kinases and other proteins enriched by Kinobeads from mixed cancer cell lysates (Homo sapiens, UniProt Q7KZI7); assay: as above; assay type: binding; conditions: target MARK2
T11 construct: endogenous in cells

[12] = molecular target: T12, endogenous kinases and other proteins enriched by Kinobeads from mixed cancer cell lysates (Homo sapiens, UniProt Q9H0K1); assay: as above; assay type: binding; conditions: target SIK2
T12 construct: endogenous in cells
T12 sequence (Q9H0K1 whole entry): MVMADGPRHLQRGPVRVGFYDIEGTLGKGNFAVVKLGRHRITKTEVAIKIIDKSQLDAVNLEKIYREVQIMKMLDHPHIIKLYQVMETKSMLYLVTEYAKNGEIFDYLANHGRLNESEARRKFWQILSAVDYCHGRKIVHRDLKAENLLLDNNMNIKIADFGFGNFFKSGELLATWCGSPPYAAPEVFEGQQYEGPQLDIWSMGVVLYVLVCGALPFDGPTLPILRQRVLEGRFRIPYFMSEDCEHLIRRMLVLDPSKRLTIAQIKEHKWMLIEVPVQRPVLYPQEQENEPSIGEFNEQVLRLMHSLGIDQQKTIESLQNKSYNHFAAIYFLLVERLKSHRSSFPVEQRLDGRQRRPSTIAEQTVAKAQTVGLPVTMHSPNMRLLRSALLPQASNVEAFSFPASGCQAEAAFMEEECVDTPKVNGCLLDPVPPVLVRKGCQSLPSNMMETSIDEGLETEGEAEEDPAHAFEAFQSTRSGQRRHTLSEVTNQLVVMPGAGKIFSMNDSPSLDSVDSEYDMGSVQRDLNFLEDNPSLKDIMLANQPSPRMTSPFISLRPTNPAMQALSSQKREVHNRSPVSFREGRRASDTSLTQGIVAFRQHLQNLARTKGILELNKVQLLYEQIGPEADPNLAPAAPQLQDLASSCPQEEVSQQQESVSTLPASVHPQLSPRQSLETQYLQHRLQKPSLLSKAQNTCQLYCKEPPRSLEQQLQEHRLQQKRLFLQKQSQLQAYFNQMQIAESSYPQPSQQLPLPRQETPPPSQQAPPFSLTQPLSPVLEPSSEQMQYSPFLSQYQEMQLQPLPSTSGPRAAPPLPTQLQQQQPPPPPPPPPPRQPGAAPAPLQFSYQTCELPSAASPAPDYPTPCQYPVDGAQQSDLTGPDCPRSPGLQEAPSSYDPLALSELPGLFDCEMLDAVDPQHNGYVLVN

[13] = molecular target: T13, endogenous kinases and other proteins enriched by Kinobeads from mixed cancer cell lysates (Homo sapiens, UniProt P35916); assay: as above; assay type: binding; conditions: target FLT4
T13 construct: endogenous in cells

[14] = molecular target: T14, endogenous kinases and other proteins enriched by Kinobeads from mixed cancer cell lysates (Homo sapiens, UniProt Q96L34); assay: as above; assay type: binding; conditions: target MARK4
T14 construct: endogenous in cells
T14 sequence (Q96L34 whole entry): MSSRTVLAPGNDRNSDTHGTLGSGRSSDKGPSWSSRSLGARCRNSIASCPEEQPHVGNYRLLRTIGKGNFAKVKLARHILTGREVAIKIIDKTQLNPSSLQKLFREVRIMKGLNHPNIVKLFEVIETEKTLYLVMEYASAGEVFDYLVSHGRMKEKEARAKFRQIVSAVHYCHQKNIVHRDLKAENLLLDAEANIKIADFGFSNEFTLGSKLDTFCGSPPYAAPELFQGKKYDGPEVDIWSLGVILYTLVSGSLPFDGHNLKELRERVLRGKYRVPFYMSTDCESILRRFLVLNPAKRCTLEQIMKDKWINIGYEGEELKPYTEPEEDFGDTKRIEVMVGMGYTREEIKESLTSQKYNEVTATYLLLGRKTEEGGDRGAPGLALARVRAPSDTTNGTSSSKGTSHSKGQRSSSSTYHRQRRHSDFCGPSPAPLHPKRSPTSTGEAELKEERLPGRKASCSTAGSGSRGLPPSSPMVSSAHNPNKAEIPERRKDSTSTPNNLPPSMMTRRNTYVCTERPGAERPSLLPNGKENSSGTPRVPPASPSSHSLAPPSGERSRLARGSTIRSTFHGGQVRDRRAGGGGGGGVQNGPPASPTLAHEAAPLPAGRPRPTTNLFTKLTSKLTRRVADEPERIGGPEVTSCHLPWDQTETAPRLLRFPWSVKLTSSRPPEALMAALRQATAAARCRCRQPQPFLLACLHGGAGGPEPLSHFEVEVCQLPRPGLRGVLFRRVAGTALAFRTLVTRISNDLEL

[15] = molecular target: T15, endogenous kinases and other proteins enriched by Kinobeads from mixed cancer cell lysates (Homo sapiens, UniProt Q9H2G2); assay: as above; assay type: binding; conditions: target SLK
T15 construct: endogenous in cells

[16] = molecular target: T16, endogenous kinases and other proteins enriched by Kinobeads from mixed cancer cell lysates (Homo sapiens, UniProt O00444); assay: as above; assay type: binding; conditions: target PLK4
T16 construct: endogenous in cells

[17] = molecular target: T17, endogenous kinases and other proteins enriched by Kinobeads from mixed cancer cell lysates (Homo sapiens, UniProt Q13188); assay: as above; assay type: binding; conditions: target STK3
T17 construct: endogenous in cells

[18] = molecular target: T18, endogenous kinases and other proteins enriched by Kinobeads from mixed cancer cell lysates (Homo sapiens, UniProt Q9NQS7); assay: as above; assay type: binding; conditions: target INCENP
T18 construct: endogenous in cells

[19] = molecular target: T19, endogenous kinases and other proteins enriched by Kinobeads from mixed cancer cell lysates (Homo sapiens, UniProt P51946); assay: as above; assay type: binding; conditions: target CCNH
T19 construct: endogenous in cells
T19 sequence (P51946 whole entry): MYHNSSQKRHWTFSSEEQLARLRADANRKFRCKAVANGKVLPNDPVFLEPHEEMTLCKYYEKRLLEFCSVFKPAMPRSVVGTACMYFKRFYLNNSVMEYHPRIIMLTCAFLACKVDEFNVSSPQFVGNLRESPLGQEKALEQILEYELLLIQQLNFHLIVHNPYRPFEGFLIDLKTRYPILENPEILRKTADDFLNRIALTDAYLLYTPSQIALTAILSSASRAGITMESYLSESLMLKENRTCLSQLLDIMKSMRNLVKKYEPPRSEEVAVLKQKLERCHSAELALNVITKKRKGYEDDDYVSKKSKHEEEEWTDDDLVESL

[20] = molecular target: T20, endogenous kinases and other proteins enriched by Kinobeads from mixed cancer cell lysates (Homo sapiens, UniProt Q13043); assay: as above; assay type: binding; conditions: target STK4
T20 construct: endogenous in cells

[21] = molecular target: T21, endogenous kinases and other proteins enriched by Kinobeads from mixed cancer cell lysates (Homo sapiens, UniProt O15530); assay: as above; assay type: binding; conditions: target PDPK1;PDPK2P
T21 construct: endogenous in cells

[22] = molecular target: T22, endogenous kinases and other proteins enriched by Kinobeads from mixed cancer cell lysates (Homo sapiens, UniProt Q6ZSR9); assay: as above; assay type: binding; conditions: target Q6ZSR9
T22 construct: endogenous in cells
T22 sequence (Q6ZSR9 whole entry): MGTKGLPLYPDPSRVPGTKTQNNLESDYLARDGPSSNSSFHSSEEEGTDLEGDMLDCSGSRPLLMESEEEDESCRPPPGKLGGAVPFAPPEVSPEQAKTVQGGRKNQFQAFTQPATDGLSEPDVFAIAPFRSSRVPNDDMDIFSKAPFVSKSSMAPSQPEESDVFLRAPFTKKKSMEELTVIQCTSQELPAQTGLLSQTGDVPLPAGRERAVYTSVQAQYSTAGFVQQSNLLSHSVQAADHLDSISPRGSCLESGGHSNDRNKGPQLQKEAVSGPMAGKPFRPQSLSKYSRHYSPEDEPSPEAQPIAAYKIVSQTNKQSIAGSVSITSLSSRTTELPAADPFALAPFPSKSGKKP

CSK = molecular target: T23, CSK (Homo sapiens, UniProt P41240); assay: Kinobeads two-dose competition binding: CSK; conditions: read-out: Lestaurtinib Drugmatrix value, Gene Name CSK
T23 construct: endogenous in cells

HCK = molecular target: T24, HCK (Homo sapiens, UniProt P08631); assay: Kinobeads two-dose competition binding: HCK; conditions: read-out: Lestaurtinib Drugmatrix value, Gene Name HCK; target HCK; each column = one Lestaurtinib control replicate (batch_R1-R3)
T24 construct: endogenous in cells

MAPKAPK2 = molecular target: T25, MAPKAPK2 (Homo sapiens, UniProt P49137); assay: Kinobeads full dose-response competition binding: MAPKAPK2; conditions: Gene Name MAPKAPK2
T25 construct: endogenous in cells
T25 sequence (P49137 whole entry): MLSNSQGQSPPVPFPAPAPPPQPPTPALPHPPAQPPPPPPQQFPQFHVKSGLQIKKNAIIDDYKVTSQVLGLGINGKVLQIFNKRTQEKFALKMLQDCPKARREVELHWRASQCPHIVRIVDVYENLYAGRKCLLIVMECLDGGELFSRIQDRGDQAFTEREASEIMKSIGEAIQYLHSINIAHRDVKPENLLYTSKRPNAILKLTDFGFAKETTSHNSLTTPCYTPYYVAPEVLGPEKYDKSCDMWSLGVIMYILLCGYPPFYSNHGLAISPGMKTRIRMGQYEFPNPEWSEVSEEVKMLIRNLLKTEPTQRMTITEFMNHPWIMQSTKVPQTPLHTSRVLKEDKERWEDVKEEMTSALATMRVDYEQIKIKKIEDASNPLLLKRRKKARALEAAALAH

Cn1cc(-c2nc(N[C@@H]3CCCC[C@@H]3N)c(F)c3c2C(=O)NC3)cn1 [TAK659]
EC50 [1]: 1010 nM | Kd ([1]; read-out: apparent Kd): 895 nM | Kd [2]: 2960 nM | EC50 [3]: 997 nM | Kd ([3]; read-out: apparent Kd): 720 nM | EC50 [4]: 161 nM | Kd ([4]; read-out: apparent Kd): 86.7 nM | EC50 [5]: 718 nM | Kd ([5]; read-out: apparent Kd): 675 nM | EC50 [6]: 1280 nM | Kd ([6]; read-out: apparent Kd): 590 nM | EC50 [7]: 537 nM | Kd ([7]; read-out: apparent Kd): 456 nM | EC50 [8]: 1150 nM | Kd ([8]; read-out: apparent Kd): 1150 nM | EC50 [9]: 1020 nM | Kd ([9]; read-out: apparent Kd): 528 nM | EC50 [10]: 1020 nM | Kd ([10]; read-out: apparent Kd): 312 nM | EC50 [11]: 837 nM | Kd ([11]; read-out: apparent Kd): 762 nM | EC50 [12]: 260 nM | Kd ([12]; read-out: apparent Kd): 140 nM | EC50 [13]: 564 nM | Kd ([13]; read-out: apparent Kd): 308 nM | EC50 [14]: 1050 nM | Kd ([14]; read-out: apparent Kd): 1050 nM | EC50 [15]: 516 nM | Kd ([15]; read-out: apparent Kd): 516 nM | EC50 [16]: 148 nM | Kd ([16]; read-out: apparent Kd): 77.2 nM | EC50 [17]: 742 nM | Kd ([17]; read-out: apparent Kd): 683 nM | EC50 [18]: 150 nM | Kd ([18]; read-out: apparent Kd): 150 nM | EC50 [19]: 1730 nM | Kd ([19]; read-out: apparent Kd): 1580 nM | EC50 [20]: 628 nM | Kd ([20]; read-out: apparent Kd): 567 nM | EC50 [21]: 639 nM | Kd ([21]; read-out: apparent Kd): 639 nM | EC50 [22]: 566 nM | Kd ([22]; read-out: apparent Kd): 493 nM

C[C@]12O[C@H](C[C@]1(O)CO)n1c3ccccc3c3c4c(c5c6ccccc6n2c5c31)CNC4=O [Lestaurtinib]
potency estimated from few doses (CSK): 526 nM | potency estimated from few doses (HCK): 587 nM

NCc1ccc(-c2nc(-c3ccncc3)c(-c3ccc(Cl)c(O)c3)[nH]2)cc1 [SB-476429-A]
Relative Intensity 0.3nM (MAPKAPK2; 0.3nM compound, DMSO = 1): 1.233 | Relative Intensity 1nM (MAPKAPK2; 1nM compound, DMSO = 1): 1.094 | Relative Intensity 3nM (MAPKAPK2; 3nM compound, DMSO = 1): 1.023 | Relative Intensity 10nM (MAPKAPK2; 10nM compound, DMSO = 1): 1.156 | Relative Intensity 30nM (MAPKAPK2; 30nM compound, DMSO = 1): 0.8314 | Relative Intensity 100nM (MAPKAPK2; 100nM compound, DMSO = 1): 0.6869 | Relative Intensity 300nM (MAPKAPK2; 300nM compound, DMSO = 1): 0.5275 | Relative Intensity 1000nM (MAPKAPK2; 1000nM compound, DMSO = 1): 0 | Kd (MAPKAPK2; EC50 with Correction, doses in nM, read-out: apparent Kd): 174 nM | EC50 (MAPKAPK2; eight-dose curve fit, doses in nM): 174 nM
